PMC12191008, “Heterostilbene Carbamates with Selective and Remarkable Butyrylcholinesterase Inhibition: Computational Study and Physico-Chemical Properties” (Biomolecules, 2025)
“And” between values parts separate entries of the source, which are not always exact repeats. Equal values may be shown once. Read-outs that look alike come from different tables or passages of the source.

What was measured:
[1] = target: BChE (EC 3.1.1.8, equine serum) (Equus caballus, UniProt P81908); assay: In vitro ChE activity assay (modified Ellman), BChE; type: biochemical; conditions: for inhibition at 500 µM / inhibition at 50 µM: read-out: BChE % Inhibition
[2] = tested on: LPS-stimulated TNFα production in PBMCs; assay: LPS-stimulated TNFα production in PBMCs (ELISA); type: cell-based; conditions: Homo sapiens, PBMC, read-out: IC50, inhibition of LPS-stimulated TNFα production
Protocol: The effect of compounds on lipopolysaccharide (LPS)-stimulated tumor necrosis factor alpha (TNFα) production was evaluated as described previously. In short, peripheral blood mononuclear cells (PBMCs) were isolated from buffy coats obtained from healthy adult volunteers and resuspended in RPMI1640 medium (Capricorn Scientific, Ebsdorfergrund, Germany) supplemented with 10% heat-inactivated FBS (Biowest, Bradenton, FL, USA), 1% GlutaMAX (Gibco, Waltham, MA, USA), and 1% antibiotic–antimycotic (Gibco). Then, 2 × 10^5 PBMCs were seeded per well of a 96-well plate. […]
TNFα concentration in supernatants was measured by ELISA using antibodies and recombinant human TNFα protein (standard) from R&D Systems. […] Finally, after the plates were incubated with streptavidin-HRP (Invitrogen, Waltham, MA, USA), chemiluminescence ELISA Substrate (Roche, Basel, Switzerland) was added to the wells, and luminescence was measured using an EnVision 2105 multilabel reader (Revvity, Waltham, MA, USA). Measured luminescence was used to calculate concentrations of TNFα in the supernatants by interpolation from the standard curve. Percentages of inhibition were calculated from obtained cytokine concentrations, and IC50 values were determined using GraphPad Prism v9 software with a nonlinear regression curve fit (four parameters with variable slope).

[3] = at maximal concentration tested
[4] = at maximal concentration tested, 50 μM

Chain of BChE (EC 3.1.1.8, equine serum) (P81908 whole entry): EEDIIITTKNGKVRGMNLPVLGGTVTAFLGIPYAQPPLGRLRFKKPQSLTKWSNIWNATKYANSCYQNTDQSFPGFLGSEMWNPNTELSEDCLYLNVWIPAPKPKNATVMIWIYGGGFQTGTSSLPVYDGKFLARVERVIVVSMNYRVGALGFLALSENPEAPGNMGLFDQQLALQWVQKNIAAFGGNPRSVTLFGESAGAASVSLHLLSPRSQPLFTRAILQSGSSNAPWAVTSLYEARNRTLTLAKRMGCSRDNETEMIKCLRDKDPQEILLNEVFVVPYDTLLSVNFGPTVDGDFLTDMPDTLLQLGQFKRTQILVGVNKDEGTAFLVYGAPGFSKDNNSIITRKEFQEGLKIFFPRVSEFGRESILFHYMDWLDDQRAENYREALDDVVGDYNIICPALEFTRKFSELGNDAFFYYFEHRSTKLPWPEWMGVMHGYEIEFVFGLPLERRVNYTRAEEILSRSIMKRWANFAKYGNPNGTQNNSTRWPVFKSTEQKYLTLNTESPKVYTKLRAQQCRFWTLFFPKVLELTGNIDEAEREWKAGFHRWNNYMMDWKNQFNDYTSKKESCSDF

Compound: CNC(=O)Oc1ccccc1/C=C/c1cccs1 [Compound 1, (E)-2-(2-(thiophen-2-yl)vinyl)phenyl methylcarbamate]
- inhibition at 10 µM [1, 3]: 84.4 ± 1.18%
- IC50 ([1]; read-out: BChE IC50): 0.5 µM

Compound: CNC(=O)Oc1ccc(C)cc1/C=C/c1cccs1 [Compound 4, (E)-4-methyl-2-(2-(thiophen-2-yl)vinyl)phenyl methylcarbamate]
- IC50 ([1]; BChE IC50): 1.1 µM and 0.913 µM
- inhibition at 10 µM [1, 3]: 85.4 ± 2.29%

Compound: CCN(C)C(=O)Oc1ccc(C)cc1/C=C/c1cccs1 [Compound 11, (E)-4-methyl-2-(2-(thiophen-2-yl)vinyl)phenyl ethyl(methyl)carbamate]
- inhibition at 10 µM [1, 3]: 82.8 ± 1.57%
- IC50 ([1]; read-out: BChE IC50): 1.54 µM

Compound: Cc1ccc(OC(=O)N2CCOCC2)c(/C=C/c2cccs2)c1 [Compound 18, (E)-4-methyl-2-(2-(thiophen-2-yl)vinyl)phenyl morpholine-4-carboxylate]
- inhibition at 25 µM [1, 3]: 87.5 ± 1.31%
- IC50 ([1]; read-out: BChE IC50): 0.43 µM

Compound: CNC(=O)Oc1ccc(OC)cc1/C=C/c1cccs1 [Compound 3, (E)-4-methoxy-2-(2-(thiophen-2-yl)vinyl)phenyl methylcarbamate]
- inhibition at 500 µM ([1]; at maximal concentration tested, 500 μM): 82.2 ± 2%
- IC50 ([1]; read-out: BChE IC50): 150 µM

Compound: CCN(C)C(=O)Oc1ccccc1/C=C/c1cccs1 [Compound 9, (E)-2-(2-(thiophen-2-yl)vinyl)phenyl ethyl(methyl)carbamate]
- inhibition at 10 µM [1, 3]: 83.9 ± 1.77%
- IC50 ([1]; read-out: BChE IC50): 0.583 µM

Compound: CCN(C)C(=O)Oc1cc(OC)ccc1/C=C/c1cccs1 [Compound 13, (E)-5-methoxy-2-(2-(thiophen-2-yl)vinyl)phenyl ethyl(methyl)carbamate]
- inhibition at 25 µM [1, 3]: 84.4 ± 2.29%
- IC50 ([1]; read-out: BChE IC50): 1.88 µM

Compound: CNC(=O)Oc1ccc(F)cc1/C=C/c1cccs1 [Compound 2, (E)-4-fluoro-2-(2-(thiophen-2-yl)vinyl)phenyl methylcarbamate]
- inhibition at 100 µM [1, 3]: 84.7 ± 3.2%
- IC50 ([1]; read-out: BChE IC50): 3.74 µM

Compound: C[C@@H]1C[C@H]2[C@@H]3CCC4=CC(=O)C=C[C@]4(C)[C@@]3(F)[C@@H](O)C[C@]2(C)[C@@]1(O)C(=O)CO [Dexamethasone, reference compound]
- IC50 ([2]; PBMCs, reference compound): 0.0035 µM

Compound: O=C(Oc1ccc(F)cc1/C=C/c1cccs1)N1CCOCC1 [Compound 17, (E)-4-fluoro-2-(2-(thiophen-2-yl)vinyl)phenyl morpholine-4-carboxylate]
- inhibition at 25 µM [1, 3]: 82.3 ± 2.44%
- IC50 ([1]; read-out: BChE IC50): 0.645 µM

Compound: O=C(Oc1cccc(/C=C/c2cccs2)c1)N1CCOCC1 [Compound 19, (E)-3-(2-(thiophen-2-yl)vinyl)phenyl morpholine-4-carboxylate]
- inhibition at 50 µM [1, 4]: 79.7 ± 2.51%
- IC50 ([1]; read-out: BChE IC50): 2.04 µM

Compound: CNC(=O)Oc1ccc(Cl)cc1C=Cc1ncc(C)s1 [Compound 8, (E) and (Z)-4-chloro-2-(2-(5-methylthiazol-2-yl)vinyl)phenyl methylcarbamate]
- IC50 ([1]; BChE IC50): 59.1 µM
- inhibition at 500 µM [1]: 87.21 ± 0.47%

Compound: CNC(=O)Oc1ccc(Cl)cc1/C=C/c1ccc(C)s1 [Compound 7, (E)-4-chloro-2-(2-(5-methylthiophen-2-yl)vinyl)phenyl methylcarbamate]
- inhibition at 100 µM [1, 3]: 69.8 ± 1.15%
- IC50 ([1]; read-out: BChE IC50): 30.4 µM

Compound: CNC(=O)Oc1ccc(F)cc1/C=C/c1ccc(C)s1 [Compound 6, (E)-4-fluoro-2-(2-(5-methylthiophen-2-yl)vinyl)phenyl methylcarbamate]
- IC50 ([1]; BChE IC50): 14.1 µM
- inhibition at 50 µM [1]: 74 ± 3.2%

Compound: CNC(=O)Oc1ccccc1/C=C/c1ccc(C)s1 [Compound 5, (E)-2-(2-(5-methylthiophen-2-yl)vinyl)phenyl methylcarbamate]
- IC50 ([1]; BChE IC50): 0.913 µM
- inhibition at 5 µM ([1]; at maximal concentration tested, 5 μM): 74.8 ± 2.36%
- IC50 ([1]; read-out: BChE IC50): 1.1 µM

Compound: O=C(Oc1ccccc1/C=C/c1cccs1)N1CCOCC1 [Compound 16, (E)-2-(2-(thiophen-2-yl)vinyl)phenyl morpholine-4-carboxylate]
- inhibition at 1 µM ([1]; at maximal concentration tested, 1 μM): 84.25 ± 0.82%
- IC50 ([1]; read-out: BChE IC50): 0.0265 µM
- IC50 ([2]; average, PBMCs from two donors): 31.6 µM

Compound: CCN(C)C(=O)Oc1cccc(/C=C/c2cccs2)c1 [Compound 12, (E)-3-(2-(thiophen-2-yl)vinyl)phenyl ethyl(methyl)carbamate]
- IC50 ([1]; BChE IC50): 1.5 µM
- inhibition at 50 µM [1, 4]: 83.2 ± 0.84%
- IC50 ([1]; read-out: BChE IC50): 1.07 µM

Compound: CCN(C)C(=O)Oc1ccccc1/C=C/c1ccc(C)s1 [Compound 14, (E)-2-(2-(5-methylthiophen-2-yl)vinyl)phenyl ethyl(methyl)carbamate]
- IC50 ([1]; BChE IC50): 85.1 µM
- inhibition at 250 µM ([1]; at maximal concentration tested, 250 μM): 70 ± 0.8%
- IC50 ([1]; read-out: BChE IC50): 90 µM

Compound: CCN(C)C(=O)Oc1ccc(F)cc1/C=C/c1cccs1 [Compound 10, (E)-4-fluoro-2-(2-(thiophen-2-yl)vinyl)phenyl ethyl(methyl)carbamate]
- inhibition at 27 µM ([1]; at maximal concentration tested, 27 μM): 83.5 ± 1.49%
- IC50 ([1]; read-out: BChE IC50): 3.08 µM
